The nature of this data set: recombinant UMI read abundance after kanamycin selection (control-corrected) (log10(CPM+1)); higher = more efficient recombination; extreme values may be limits of the assay; sequences stand for … in AGTGCAGAGAAAATCGGCCAGTTTTCTCTGCCTGCAGTCCGCATGCCGTGGGACCCCTTGGGTTCTAACCTGTTGCCTAGATTTATGCAGCGGACTGCCTTTCTCCCAAAGTGATAAACCGG…AGGTTGGTTTCACT; site = the 11-nt donor. In a few lines: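 Counts of recombinant UMIs were reported as log10(CPM+1). Before that, they were converted to CPM, averaged over replicates and scaled using control-derived factors. They came from PCR across the donor–target junction after Escherichia coli carrying the pair library and target plasmid was plated on IPTG (0.07 mM) plus kanamycin, or unselected, in two replicates each.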
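Further: IS621 bridge recombinase in Escherichia coli cells against a fixed T5 target plasmid.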

With “AGCACAGCATGGACCGGTTTTCCCGGTAATCCGTATTTGGG (site AGCGCAGCTCC)”, the “recombinant UMI read abundance (log10)” value worked out at 0.0219.

For the sequence “AGCACAGCATGGACCGGTTTTCCCGGTAATCCGTATTTGGG (site AGCTCAGCTCC)”, the “recombinant UMI read abundance (log10)” value was found to be 0.

Regarding “AGCACCGCATGGACCGGTTTTCCCGGTAATCCGTATTTGGG (site AGCACCGCTCC)”, the “recombinant UMI read abundance (log10)” value is 0.0364.

As to “AGCACGACATGGACCGGTTTTCCCGGTAATCCGTATTTGCA (site AGCACGACTTG)”, the “recombinant UMI read abundance (log10)” value was determined as 2.02.

Consider “AGCACGACATGGACCGGTTTTCCCGGTAATCCGTATTTGCA (site AGGAAGACTTG)”, for which the “recombinant UMI read abundance (log10)” value stood at 0.

Take “AGCCAAACATGGACCGGTTTTCCCGGTAATCCGTATTTGAA (site AGCCAAACTTT)”: the “recombinant UMI read abundance (log10)” value is 1.32.

As for “AGCCCCTCATGGACCGGTTTTCCCGGTAATCCGTATTTGCA (site AGCCCCTCTTG)”, the “recombinant UMI read abundance (log10)” value is 2.75.

Consider “AGCCCTCCATGGACCGGTTTTCCCGGTAATCCGTATTTGTT (site AGCCCTCCTAA)”, for which the “recombinant UMI read abundance (log10)” value is 0.00736.

As for “AGCCGAGCATGGACCGGTTTTCCCGGTAATCCGTATTTGTT (site AGCCAAGCTAA)”, the “recombinant UMI read abundance (log10)” value was 0.398.

With “AGCCGAGCATGGACCGGTTTTCCCGGTAATCCGTATTTGTT (site AGCCCAGCTAA)”, the “recombinant UMI read abundance (log10)” value amounted to 0.0229.

For the sequence “AGCCGAGCATGGACCGGTTTTCCCGGTAATCCGTATTTGTT (site AGCCGAGCTAA)”, the “recombinant UMI read abundance (log10)” value turned out to be 0.837.

“AGCCGAGCATGGACCGGTTTTCCCGGTAATCCGTATTTGTT (site AGCCTAGCTAA)”: the “recombinant UMI read abundance (log10)” value was 0.00511.

Take “AGCCGTTCATGGACCGGTTTTCCCGGTAATCCGTATTTGAC (site AGCCATTCTGT)”: the “recombinant UMI read abundance (log10)” value turned out to be 0.

“AGCCGTTCATGGACCGGTTTTCCCGGTAATCCGTATTTGAC (site AGCCCTTCTGT)”: the “recombinant UMI read abundance (log10)” value stood at 0.

As for “AGCCGTTCATGGACCGGTTTTCCCGGTAATCCGTATTTGAC (site AGCCGTTCTGT)”, the “recombinant UMI read abundance (log10)” value was 1.9.

On to “AGCCGTTCATGGACCGGTTTTCCCGGTAATCCGTATTTGAC (site AGCCTTTCTGT)”, for which the “recombinant UMI read abundance (log10)” value stood at 0.

“AGCCTAGCATGGACCGGTTTTCCCGGTAATCCGTATTTGCT (site AGCCTAGCTAA)”: the “recombinant UMI read abundance (log10)” value was 0.0111.

On to “AGCCTAGCATGGACCGGTTTTCCCGGTAATCCGTATTTGCT (site AGCCTAGCTAC)”, for which the “recombinant UMI read abundance (log10)” value came out at 0.0198.

For “AGCCTAGCATGGACCGGTTTTCCCGGTAATCCGTATTTGCT (site AGCCTAGCTAG)”, the “recombinant UMI read abundance (log10)” value came to 0.00934.

As to “AGCCTAGCATGGACCGGTTTTCCCGGTAATCCGTATTTGCT (site AGCCTAGCTAT)”, the “recombinant UMI read abundance (log10)” value came out at 0.

“AGCCTAGCATGGACCGGTTTTCCCGGTAATCCGTATTTGTG (site AGCCTAGCTAA)”: the “recombinant UMI read abundance (log10)” value came out at 0.0164.

In the case of “AGCCTAGCATGGACCGGTTTTCCCGGTAATCCGTATTTGTG (site AGCCTAGCTCA)”, the “recombinant UMI read abundance (log10)” value was determined as 0.0603.

Take “AGCCTAGCATGGACCGGTTTTCCCGGTAATCCGTATTTGTG (site AGCCTAGCTGA)”: the “recombinant UMI read abundance (log10)” value was 0.

For the sequence “AGCCTAGCATGGACCGGTTTTCCCGGTAATCCGTATTTGTG (site AGCCTAGCTTA)”, the “recombinant UMI read abundance (log10)” value was determined as 0.00858.

On to “AGCCTATCATGGACCGGTTTTCCCGGTAATCCGTATTTGTT (site AGCCTAACTAA)”, for which the “recombinant UMI read abundance (log10)” value came out at 0.0449.

On to “AGCCTATCATGGACCGGTTTTCCCGGTAATCCGTATTTGTT (site AGCCTACCTAA)”, for which the “recombinant UMI read abundance (log10)” value was 0.00813.

As to “AGCCTATCATGGACCGGTTTTCCCGGTAATCCGTATTTGTT (site AGCCTAGCTAA)”, the “recombinant UMI read abundance (log10)” value was 0.0191.

As for “AGCCTATCATGGACCGGTTTTCCCGGTAATCCGTATTTGTT (site AGCCTATCTAA)”, the “recombinant UMI read abundance (log10)” value worked out at 0.

Consider “AGCCTCGCATGGACCGGTTTTCCCGGTAATCCGTATTTGTA (site AGCCTCGCTTA)”, for which the “recombinant UMI read abundance (log10)” value is 0.57.

“AGCCTCGCATGGACCGGTTTTCCCGGTAATCCGTATTTGTT (site AGCCTAGCTAA)”: the “recombinant UMI read abundance (log10)” value turned out to be 0.0107.

On to “AGCCTCGCATGGACCGGTTTTCCCGGTAATCCGTATTTGTT (site AGCCTCGCTAA)”, for which the “recombinant UMI read abundance (log10)” value was determined as 0.0635.

With “AGCCTCGCATGGACCGGTTTTCCCGGTAATCCGTATTTGTT (site AGCCTGGCTAA)”, the “recombinant UMI read abundance (log10)” value came to 0.00929.

For the sequence “AGCCTCGCATGGACCGGTTTTCCCGGTAATCCGTATTTGTT (site AGCCTTGCTAA)”, the “recombinant UMI read abundance (log10)” value was found to be 0.0107.

As to “AGCCTTGCATGGACCGGTTTTCCCGGTAATCCGTATTTGAC (site AGCCTTACTGT)”, the “recombinant UMI read abundance (log10)” value was found to be 0.

On to “AGCCTTGCATGGACCGGTTTTCCCGGTAATCCGTATTTGAC (site AGCCTTCCTGT)”, for which the “recombinant UMI read abundance (log10)” value worked out at 0.

“AGCCTTGCATGGACCGGTTTTCCCGGTAATCCGTATTTGAC (site AGCCTTGCTGT)”: the “recombinant UMI read abundance (log10)” value was 1.36.

Consider “AGCCTTGCATGGACCGGTTTTCCCGGTAATCCGTATTTGAC (site AGCCTTTCTGT)”, for which the “recombinant UMI read abundance (log10)” value came out at 0.

Regarding “AGCCTTTCATGGACCGGTTTTCCCGGTAATCCGTATTTGTC (site AGCCTTTCTGA)”, the “recombinant UMI read abundance (log10)” value was 0.

For “AGCCTTTCATGGACCGGTTTTCCCGGTAATCCGTATTTGTC (site AGCCTTTCTGC)”, the “recombinant UMI read abundance (log10)” value turned out to be 0.

For “AGCCTTTCATGGACCGGTTTTCCCGGTAATCCGTATTTGTC (site AGCCTTTCTGG)”, the “recombinant UMI read abundance (log10)” value amounted to 0.

In the case of “AGCCTTTCATGGACCGGTTTTCCCGGTAATCCGTATTTGTC (site AGCCTTTCTGT)”, the “recombinant UMI read abundance (log10)” value was found to be 0.00535.

On to “AGCGAGTCATGGACCGGTTTTCCCGGTAATCCGTATTTGAT (site AGCGAGTCTAT)”, for which the “recombinant UMI read abundance (log10)” value amounted to 2.73.

Take “AGCTAACCATGGACCGGTTTTCCCGGTAATCCGTATTTGCA (site AGCTAACCTTG)”: the “recombinant UMI read abundance (log10)” value was 0.

Take “AGCTAGTCATGGACCGGTTTTCCCGGTAATCCGTATTTGAG (site AGCTAGTCTCT)”: the “recombinant UMI read abundance (log10)” value came out at 2.57.

For “AGCTATACATGGACCGGTTTTCCCGGTAATCCGTATTTGAC (site AACTATACTGT)”, the “recombinant UMI read abundance (log10)” value came out at 0.393.

Consider “AGCTATACATGGACCGGTTTTCCCGGTAATCCGTATTTGAC (site ACCTATACTGT)”, for which the “recombinant UMI read abundance (log10)” value was determined as 0.726.

With “AGCTATACATGGACCGGTTTTCCCGGTAATCCGTATTTGAC (site AGCTATACTGT)”, the “recombinant UMI read abundance (log10)” value came to 2.03.

Turning to “AGCTATACATGGACCGGTTTTCCCGGTAATCCGTATTTGAC (site ATCTATACTGT)”, the “recombinant UMI read abundance (log10)” value was found to be 1.85.

On to “AGCTCATCATGGACCGGTTTTCCCGGTAATCCGTATTTGGG (site AGCTCAACTCC)”, for which the “recombinant UMI read abundance (log10)” value came to 0.

Consider “AGCTCATCATGGACCGGTTTTCCCGGTAATCCGTATTTGGG (site AGCTCACCTCC)”, for which the “recombinant UMI read abundance (log10)” value is 0.0192.

On to “AGCTCATCATGGACCGGTTTTCCCGGTAATCCGTATTTGGG (site AGCTCAGCTCC)”, for which the “recombinant UMI read abundance (log10)” value came out at 0.0292.

As to “AGCTCATCATGGACCGGTTTTCCCGGTAATCCGTATTTGGG (site AGCTCATCTCC)”, the “recombinant UMI read abundance (log10)” value is 0.833.

Values taken from the supplement of paper PMC11208160.
